The text below walks through data of patent US20260374818A1, “CATIONIC PEPTIDES WITH BROAD SPECTRUM ACTIVITY” (priority 2023, published 2026).

Experiment [1] has as its system P. aeruginosa PAO1 planktonic cells. In words: Planktonic inhibition by AB103-D single substitution variants, P. aeruginosa. The experiment is classed as cell-based. To be noted: Pseudomonas; read-out: IC50 of AB103-D alone, planktonic. The source says:
(§1) A series of single amino acid substitution variants of the AB103-D peptide were generated on cellulose arrays using SPOT-synthesis technology [Hilpert, K., Winkler, D. F., & Hancock, R. E. W. (2007). Peptide arrays on cellulose support: SPOT synthesis, a time and cost efficient method for synthesis of large numbers of peptides in a parallel and addressable fashion. Nature Protocols, 2(6), 1333-1349; Frank, R. (2002). The SPOT-synthesis technique. Synthetic peptide arrays on membrane supports-principles and applications. J Immunol Methods, 267(1), 13-26] to test for enhanced Gram-negative activity against P. aeruginosa and determine which residues contribute to the antibiofilm effects of this peptide. 96 AB103-D variants were generated by replacing each residue in the parent peptide with one of D-Arg, D-Lys, D-Glu, Gly, D-Ala, D-Ile, D-Leu, D-Val and D-Trp. The biofilm inhibitory activity of all 96 AB103-D variants was subsequently assessed against MRSA USA300 LAC or P. aeruginosa PAO1 in a microtitre plate assay [Haney, E. F., Trimble, M. J., & Hancock, R. E. W. (2021). Microtiter plate assays to assess antibiofilm activity against bacteria. Nature Protocols, 16(5), 2615-2632]. […].

For another experiment, the system named is MRSA planktonic cells. In words: Planktonic inhibition by AB103-D single substitution variants, MRSA. The experiment is classed as cell-based, methicillin resistant Staphylococcus aureus. To be noted: read-out: IC50 of AB103-D alone, planktonic.
Excerpt: as §1

Where a SMILES comes first, the peptide text is derived from it. [ ]: non-standard residue; d: D form.

Turning to `CC[C@@H](C)[C@@H](NC(=O)[C@@H](C)NC(=O)[C@@H](CCCNC(=N)N)NC(=O)[C@@H](Cc1c[nH]c2ccccc12)NC(=O)[C@@H](CCC(N)=O)NC(=O)[C@H](NC(=O)[C@@H](CCCNC(=N)N)NC(=O)[C@H](NC(=O)[C@H](NC(=O)[C@@H](CCCNC(=N)N)NC(=O)[C@H](NC(=O)[C@H](N)CCCNC(=N)N)C(C)C)C(C)C)[C@H](C)CC)C(C)C)C(N)=O` [AB103-D, rvrvirvqwrai-NH2] (H-[dR][dV][dR][dV][dI][dR][dV][dQ][dW][dR][dA][dI]-NH2), the results for the IC50 (in experiment [1]; with MRSA planktonic cells) were 16 µM and 1.96 µM, respectively.
